According to patent US8574578B2, “Antibodies against PDGFRα to inhibit tumor growth” (ImClone LLC, priority 2006, dated 2013):

How the values were obtained:
[1] = tested on: Akt phosphorylation in PC3-ML cells; experiment: Akt phosphorylation in PC3-ML cells (Western blot); format: cell-based, human; conditions: 20 μM AG-1296
Protocol: Bone marrow samples from normal male donors (ages 18-45) were supplied by Cambrex (Poietics™ Donor Program). Samples were centrifuged at 1,500 rpm in order to separate the soluble and cellular phases. The supernatant was filtered using 0.8 μm and 0.22 μm filters in succession. 50 μl of bone marrow aspirate was administered to cells in 1 ml of medium (1:20 final dilution).
For experiments performed in the presence of serum, cells were cultured in DMEM supplemented with 10% FBS and 50 μg/ml gentamycin for 24 hours prior to exposure to bone marrow. For experiments in the absence of serum (starved cells), cells were washed twice with PBS, the growth medium was replaced with serum-free DMEM, and the cells were incubated for 4 hours prior to exposure to bone marrow preparations. When used, AG-1296, a specific inhibitor of PDGF receptors (Rice et al., 1999, Amer. J. Path. 155, 213-21) was added to cultures 30 min. prior to exposure to bone marrowaspirate. IMC-3G3 antibodies were administered as described at pre-treatment times as stated below.

[2] = tested on: LuCaP 35V xenograft; experiment: LuCaP 35V subcutaneous xenograft tumor growth
Protocol: Tumor bits (20 to 30 mm^3) of androgen-independent (AI) LuCaP 35V were implanted subcutaneously (s.c.) into 32 six-week-old castrated SCID mice respectively as previously described (4). […] Group 1 animals received docetaxel treatment at a dose of 20 mg/kg. Group 2 animals received docetaxel treatment at a dose of 10 mg/kg. Group 3 animals received combined treatment of 10 mg/kg docetaxel and 40 mg/kg A12. Group 4 animals received combined treatment of 20 mg/kg docetaxel and 40 mg/kg A12. All treatments were administered intraperitoneally (ip). Docetaxel was administered once a week. A12 was administered three times a week. All animals were treated for four weeks and monitored for additional four weeks before euthanization. Tumors were measured twice weekly and tumor volume was estimated by the formula: volume=L×W^2/2. Following our University of Washington IACUC approved animal protocol, some animals were euthanized at an earlier time when tumor reached a volume of 1000 mm^3 or when animal weight loss exceeded 20% of initial body weight. Animals were weighed twice a week.

[3] = tested on: LuCaP 35V xenograft; experiment: TUNEL / propidium staining flow cytometry of tumor cells at time of sacrifice; format: in vivo, castrated SCID mice; conditions: percentage of tumors; for Apoptosis (%): four weeks after treatment termination; for G1 arrest (%) / G2 arrest (%) / Normal cycle (%): time of sacrifice
Protocol: After euthanization, tumors were collected and halved. A portion of the tumors were fixed in 10% neutral buffer formalin (NFB) and embedded in paraffin. Five micron sections were prepared for immunohistochemistry (IHC) staining. The remaining portion of the tumors was separated into single cells mechanically by mincing and filtering through 70 μm nylon sieves.
The combined in vivo effect of docetaxel and A12 treatment on cell cycle and cell survival at the experimental end point was measured by terminal deoxynucleotidyl transferase-mediated nick end labeling (TUNEL) assay and propidium (PI) staining using the Apop-Direct kit (BD BioScience) as previously described. Briefly, 1×10^6 cells from the single-cell suspension were fixed with 10% neutral buffer formalin (NBF) followed by 70% ethanol alcohol at −20° C. for 30 min. After several washes, cells were permeabilized with 0.1% Triton X-100 and incubated with FITC-conjugated dUTP and terminal deoxynucleotidyl transferase enzyme (TdT) at 37° C. for 1 h, followed by an incubation with PI/RNase buffer (100 μg/ml of PI, 50 μg/ml RNase) at room temperature for 60 min. Samples were analyzed by flow cytometry using a BD FACscan. Data were analyzed with CellQuest^PRO software.

[4] = tested on: LuCaP 35V xenograft; experiment: Serum PSA in mice carrying LuCaP 35V xenografts (IMx Total PSA Assay); format: in vivo, castrated SCID mice
Protocol: (§1) All treatments were administered intraperitoneally (ip). Docetaxel was administered once a week. A12 was administered three times a week. […] Animals were weighed twice a week. Blood samples were collected from orbital sinus weekly.

[5] = Overall cytotoxicity of coadministration of docetaxel and IMC-A12; format: in vivo, SCID mice; conditions: compared to control tumor-bearing animals
Protocol: as §1
Cytotoxicity of coadministration of docetaxel and IMC-A12 was examined.

[6] = tested on: LuCaP 23.1 human prostate tumor; experiment: Docetaxel with or without A12, LuCaP 23.1 intratibial xenografts, four weeks; format: in vivo, SCID mice
Protocol: LuCaP 23.1 human prostate tumor bits (20 to 30 mm^3) were mechanically digested. 2-5×10^5 viable LuCaP 23.1 cells were injected into the tibiae of 6-8 wk old SCID mice. 21 mice randomized into three groups were used for the study. After tumor injection, serum PSA was monitored weekly. Treatment started when serum PSA level reached 5-10 ng/ml, an indication of tumor growth. Group 1 received control vehicle saline buffer. Group 2 received 20 mg/kg of docetaxel i.p once a week for 4 weeks. Group 3 received 20 mg/kg of docetaxel once a week and 40 mg/kg of A12 i.p. three times a week for 4 weeks. To determine whether the response to treatment was osteoblastic or osteolytic, BMD was measured by Dexa-scan and x-rays of the animals at the end point of all treatments.

[7] = tested on: LuCaP 23.1 prostate cancer cells; experiment: IMC-A12 + docetaxel, LuCaP 23.1 tibial bone metastases, six weeks (present-tense example); format: in vivo, castrated SCID mice; conditions: weekly PSA, during and after six weeks of treatment
Protocol: SCID mice are castrated 2 weeks prior to tibial tumor injections. Bone metastases are generated by direct injection of LuCaP 23.1 prostate cancer cells into the tibia of the mice, giving rise to osteoblastic lesions. The xenografts express IGF-IR. Serum PSA levels are measured biweekly to evaluate tumor growth. When serum PSA levels reach 5-10 ng/ml indicating established tumor, animals are randomized into four groups.
In two groups, 40 mg/kg of IMC-A12 are injected i.p. three times a week for six weeks with one group receiving IMC-A12+docetaxel 20 mg/kg i.p once a week for 6 weeks and a second group IMC-A12+docetaxel 10 mg i.p. three times a week for 6 weeks. Control groups receive 10 or 20 mg docetaxel i.p. without IMC-A12.
Animals are monitored with weekly PSA measurements. After termination of treatment, animals continue to be monitored with weekly PSA measurements until tumors in the docetaxel only groups show tumor regrowth. […] Reductions in PSA levels are observed to continue, even after termination of treatment at six weeks.
As indicated above, BMD measurements are made at the time of engraftment and at sacrifice, and radiographs are taken just prior to sacrifice.

[8] = Post-treatment serum levels of A12; format: in vivo, SCID mice
Protocol: Serum levels of A12 were measured in animals that had received docetaxel combined with A12.

[9] = target: murine IGF-IR (Mus musculus, UniProt Q60751); experiment: Cross-reactivity of A12 with murine IGF-IR; format: binding
[10] = tested on: LuCaP 23.1 xenograft; experiment: IMC-A12 treatment of LuCaP 23.1 intratibial xenografts (PSA, BMD, radiographs); format: in vivo, castrated SCID mice
Protocol: Anti-IGF-IR antibody therapy for bone metastases. The effectiveness of treatment with anti-IGF-IR antibodies on metastatic growth of prostate cancer cells in bone was evaluated using prostate cancer cells injected directly into the tibia of SCID mice. By this method, metastatic tumors are established directly without reliance on chemotaxis dependent invasion from the circulation. A variety of tumor lines are available for establishing bone metastases. These include PC-3, LuCaP35, and LnCaP cells which produce osteolytic lesions and LuCaP 23.1 cells which produce osterblastic lesions.
To evaluate the effectiveness of treatment with IMC-A12, LuCaP 23.1 xenograft tumors were engrafted in SCID mice, and serum PSA levels were measured biweekly to evaluate tumor growth. All animals were castrated two weeks prior to tibial tumor cell engraftment. Administration of IMC-A12 to test mice was begun when serum PSA levels reached 5-10 ng/ml (indicating established tumors). 40 mg/kg IMC-A12 was injected i.p. three times a week for six weeks.
Bone mineral density (BMD) of the tumored tibiae and the contralateral tibiae without tumor was measured by Dual X-ray absorptiometry (PIXImus Lunar densitometer) performed on a 2.5 mm×2.5 mm area at the tumor cell injection site, or the corresponding site of the contralateral tibia at the time of engraftment. Biweekly assessment of lesions was made by serum PSA measurements. All animals were sacrificed when the bone lesions in the control group had recurred after castration based on serum PSA levels (LuCaP 35 >60 ng/ml, ng/ml, LuCaP 23.1 >500 ng/ml), radiographical appearance of the bone lesions or when animals became compromised. One hour prior to sacrifice animals were injected with BrdU to monitor tumor cell proliferation. Radiographs were taken prior to sacrifice (FaxitronX-ray MX-20), and BMD of both tibiae were measured at the time of sacrifice.

[11] = 40 mg/kg IMC-A12 i.p. three times a week for six weeks, at sacrifice

Chain of murine IGF-IR (Q60751 31-1373): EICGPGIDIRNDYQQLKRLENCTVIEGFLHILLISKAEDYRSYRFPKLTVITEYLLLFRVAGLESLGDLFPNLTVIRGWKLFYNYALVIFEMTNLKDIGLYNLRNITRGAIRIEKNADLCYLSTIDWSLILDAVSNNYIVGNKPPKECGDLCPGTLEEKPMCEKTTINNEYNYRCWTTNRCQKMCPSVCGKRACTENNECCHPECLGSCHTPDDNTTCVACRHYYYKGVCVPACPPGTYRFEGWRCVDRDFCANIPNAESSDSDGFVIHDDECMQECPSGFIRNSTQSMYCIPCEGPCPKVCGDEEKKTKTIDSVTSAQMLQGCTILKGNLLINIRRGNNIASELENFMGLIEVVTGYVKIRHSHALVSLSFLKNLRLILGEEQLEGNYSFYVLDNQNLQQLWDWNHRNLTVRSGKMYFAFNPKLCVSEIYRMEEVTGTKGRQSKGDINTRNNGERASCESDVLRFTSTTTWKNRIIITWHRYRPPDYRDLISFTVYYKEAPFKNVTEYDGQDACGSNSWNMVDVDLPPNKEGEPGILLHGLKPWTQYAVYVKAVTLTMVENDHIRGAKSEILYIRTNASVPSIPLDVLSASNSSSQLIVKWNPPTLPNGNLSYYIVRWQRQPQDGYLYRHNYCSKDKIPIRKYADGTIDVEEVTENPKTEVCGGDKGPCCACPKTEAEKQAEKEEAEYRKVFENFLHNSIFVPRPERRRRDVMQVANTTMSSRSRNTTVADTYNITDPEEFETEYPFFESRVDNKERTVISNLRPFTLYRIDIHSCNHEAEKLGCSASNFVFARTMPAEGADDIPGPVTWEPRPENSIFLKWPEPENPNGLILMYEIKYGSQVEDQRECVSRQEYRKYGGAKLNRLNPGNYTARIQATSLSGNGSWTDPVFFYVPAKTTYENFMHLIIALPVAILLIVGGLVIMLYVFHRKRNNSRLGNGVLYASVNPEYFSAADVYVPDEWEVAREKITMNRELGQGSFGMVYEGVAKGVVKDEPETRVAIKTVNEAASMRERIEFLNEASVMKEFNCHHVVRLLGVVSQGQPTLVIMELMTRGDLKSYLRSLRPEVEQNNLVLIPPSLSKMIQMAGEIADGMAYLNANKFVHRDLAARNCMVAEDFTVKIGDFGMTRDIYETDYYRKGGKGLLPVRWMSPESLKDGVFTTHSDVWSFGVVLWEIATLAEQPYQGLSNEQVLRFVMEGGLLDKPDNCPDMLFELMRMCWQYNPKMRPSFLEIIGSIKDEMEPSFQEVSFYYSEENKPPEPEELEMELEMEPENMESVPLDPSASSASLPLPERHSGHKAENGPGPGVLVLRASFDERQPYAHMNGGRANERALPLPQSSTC

Question: For `COc1cc2ncc(-c3ccccc3)nc2cc1OC` [AG-1296, reference compound], which “inhibition of bone marrow aspirate induced Akt activation” value [1] is on record?
Answer: more than 40%

Question: What about the “inhibition of PDGF-BB induced Akt activation” value ([1]; 30 ng/ml PDGF-BB) of the same compound?
Answer: completely inhibits

Question: With `CC(=O)O[C@@]12CO[C@@H]1C[C@H](O)[C@@]1(C)C(=O)[C@H](O)C3=C(C)[C@@H](OC(=O)[C@H](O)[C@@H](NC(=O)OC(C)(C)C)c4ccccc4)C[C@@](O)([C@@H](OC(=O)c4ccccc4)[C@H]21)C3(C)C` [docetaxel] as the compound, how does the “rate of tumor volume increase in the four weeks following treatment termination” value ([2]; docetaxel 20 mg/kg alone) read?
Answer: 27.0±16.1 mm^3/week

Question: What about the “tumor volume during the four-week treatment period” value ([2]; docetaxel 20 mg/kg with or without combined A12) of the same compound?
Answer: tumor volume did not increase

Question: What about the “tumor growth rate during treatment” value ([2]; four-week ip treatment, A12 alone 40 μg/kg as printed, docetaxel 10 mg/kg, docetaxel 10 mg/kg + A12) of the same compound?
Answer: 29.6±6.1 mm^3/week

Question: And the “Apoptosis (%)” value ([3]; docetaxel 10 mg/kg groups)?
Answer: No apoptosis

Question: And the “Apoptosis (%)” value ([3]; docetaxel 10 mg/kg groups, listed as Doc (10))?
Answer: 0%

Question: And the “G1 arrest (%)” value ([3]; docetaxel 10 mg/kg groups)?
Answer: 0%

Question: And the “G2 arrest (%)” value ([3]; docetaxel 10 mg/kg groups)?
Answer: 12%

Question: And the “Normal cycle (%)” value ([3]; docetaxel 10 mg/kg groups)?
Answer: 88%

Question: And the “Apoptosis (%)” value ([3]; docetaxel 20 mg/kg groups)?
Answer: No apoptosis

Question: And the “Apoptosis (%)” value ([3]; docetaxel 20 mg/kg groups, listed as Doc (20))?
Answer: 0%

Question: What about the “G1 arrest (%)” value ([3]; docetaxel 20 mg/kg groups) of the same compound?
Answer: 0%

Question: What about the “G2 arrest (%)” value ([3]; docetaxel 20 mg/kg groups) of the same compound?
Answer: 0%

Question: And the “Normal cycle (%)” value ([3]; docetaxel 20 mg/kg groups)?
Answer: 100%

Question: And the “serum PSA level during the four-week treatment” value ([4]; A12 + docetaxel, or 20 mg/kg docetaxel alone)?
Answer: no significant change

Question: And the “serum PSA level after treatment termination” value ([4]; mouse, in vivo)?
Answer: increased

Question: And the “daily activity or behavior” value [5]?
Answer: no abnormal daily activity or behavior changes

Question: What about the “LuCaP 23.1 tumor growth as reflected by serum PSA levels during treatment” value ([6]; docetaxel 20 mg/kg once a week, A12 40 mg/kg three times a week, 4 weeks) of the same compound?
Answer: significantly inhibited

Question: And the “serum PSA after treatment cessation” value ([6]; docetaxel 20 mg/kg, A12 40 mg/kg)?
Answer: began to increase

Question: And the “average bone density (mean±SEM)” value ([6]; week five, docetaxel 20 mg/kg, A12 40 mg/kg)?
Answer: 0.09±0.02

Question: And the PSA levels [7]?
Answer: rise

Question: With “IMC-A12: human IgG1 anti-IGF-IR antibody; heavy chain variable domain SEQ ID NO:41, light chain variable domain SEQ ID NO:51” as the compound, how does the “serum A12 level” value ([8]; four weeks after treatment cessation) read?
Answer: very low level

Question: And the “decline of serum A12 levels” value ([8]; two weeks after treatment cessation, animals received docetaxel combined with A12)?
Answer: 100 fold

Question: What about the “cross-reactivity with murine IGF-IR” value [9] of the same compound?
Answer: greater than 95%

Question: What about the “loss of bone density (osteoporosis), non-tumored legs” value ([10]; 40 mg/kg IMC-A12) of the same compound?
Answer: did not cause a loss of bone density

Question: What about the “Bone mineral density (BMD), Non-tumored leg, Mean” value [10, 11] of the same compound?
Answer: 0.045

Question: And the “Bone mineral density (BMD), Tumored Leg, Mean” value [10, 11]?
Answer: significantly reduced

Question: And the “Bone mineral density (BMD), Tumored Leg, Mean” value ([10]; 40 mg/kg IMC-A12 i.p. three times a week for six weeks, at sacrifice, listed as A12)?
Answer: 0.060

Question: And the “Serum PSA levels” value ([10]; 40 mg/kg IMC-A12 vs untreated)?
Answer: significantly lower

Question: What about the “tumor progression on radiographs” value ([10]; 40 mg/kg IMC-A12 vs untreated) of the same compound?
Answer: significantly reduced or prevented
